According to article PMC9369311, “Examination of Intracellular GPCR-Mediated Signaling with High Temporal Resolution” (International Journal of Molecular Sciences, 2022):
pEC50: −log10 of the molar value. Several values for one entry are separate records, joined by “and”; a condition that tells them apart may be missing. Identical values can stand only once. Like-named read-outs stand apart in the source and are kept apart here.

Columns and labels:
DmOctβ1 receptor = biological target: T1, DmOctβ1 receptor (Drosophila melanogaster, UniProt Q9VCZ3); experiment: Ca2+ fluorimetry in plate reader (96 MWP), flpTM-DmOctβ1 cells (cAMP-mediated Ca2+ influx via CNGA2); assay type: cell-based; conditions: for pEC50: read-out: EC50
T1 construct: expressed in transfected cells; host or cells: flpTM cells (HEK293 flpIn, Invitrogen #750-07, carrying the CNGA2 variant)
T1 sequence (Q9VCZ3 1-508): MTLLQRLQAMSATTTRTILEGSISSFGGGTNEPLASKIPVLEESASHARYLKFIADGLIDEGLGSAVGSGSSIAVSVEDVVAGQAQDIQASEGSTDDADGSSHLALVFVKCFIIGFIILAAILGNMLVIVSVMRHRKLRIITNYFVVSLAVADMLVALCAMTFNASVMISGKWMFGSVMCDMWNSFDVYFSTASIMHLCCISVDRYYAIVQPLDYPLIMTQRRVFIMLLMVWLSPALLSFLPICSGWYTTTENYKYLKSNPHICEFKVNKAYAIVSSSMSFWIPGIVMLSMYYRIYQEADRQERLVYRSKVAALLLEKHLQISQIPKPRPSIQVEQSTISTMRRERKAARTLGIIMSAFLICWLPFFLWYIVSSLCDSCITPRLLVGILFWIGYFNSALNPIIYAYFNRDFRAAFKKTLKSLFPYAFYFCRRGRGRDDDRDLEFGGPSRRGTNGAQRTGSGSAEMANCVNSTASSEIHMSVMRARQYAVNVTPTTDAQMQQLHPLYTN
Method: (§1) Both the DmOctα1B receptor- and DmOctβ1 receptor-expressing (=flpTM-DmOctβ1) cell lines were initially investigated via Ca^2+ fluorimetric measurements in a plate reader. The cells were seeded in 96 well plates and loaded with Fluo-4, enabling the detection of changes in [Ca^2+]i. The Fluo-4 was excited at 485 nm and the fluorescence emission was recorded at 510 nm. To overcome the cAMP degradation by cell-endogenous phosphodiesterases, the DmOctβ1-expressing cells were treated with 100 µM iso-butylmethylxanthine (IBMX). Prior to the ligand application, the basal fluorescence (F0) was recorded and the concentration–response curves were generated by plotting the changes in fluorescence ((Fmax − F0)/F0 = ΔF/F0) against the ligand concentrations. For a better comparison, the fluorescence intensities were normalized. The maximal change in fluorescence for each of the stimulation series was defined as 100%. The EC50 values were determined from a nonlinear regression plot (four parameters) using GraphPad Prism v5.04 for analysis and display.
(§2) In order to omit loading with the fluorescent dye, both the DmOctα1B-expressing cells and flpTM-DmOctβ1 cells were stably transfected with a construct encoding the cytosolic version of GCaMP3.0. As in the previous experiment with Fluo-4, the GCaMP3.0-expressing cell lines were seeded in 96 well plates and incubated with the same series of increasing octopamine concentrations. The GCaMP3.0 was excited at 485 nm and the fluorescence emission was recorded at 510 nm. The basal fluorescence (F0) was recorded before adding the octopamine concentration series. The fluorescence intensities were normalized to the maximal change in fluorescence, defined as 100%. The concentration–response curves were generated with GraphPad Prism v5.04. In Figure 1, the concentration–response curves obtained with Fluo-4 and GCaMP3.0 are depicted for both of the receptors. […]

DmOctα1B receptor = biological target: T2, DmOctα1B receptor (Drosophila melanogaster, UniProt Q7JQF1); experiment: Ca2+ fluorimetry in plate reader (96 MWP), DmOctα1B-expressing HEK293 cells; assay type: cell-based; conditions: for pEC50: 96 MWP plate reader, read-out: EC50
T2 construct: expressed in transfected cells
T2 sequence (Q7JQF1 1-645): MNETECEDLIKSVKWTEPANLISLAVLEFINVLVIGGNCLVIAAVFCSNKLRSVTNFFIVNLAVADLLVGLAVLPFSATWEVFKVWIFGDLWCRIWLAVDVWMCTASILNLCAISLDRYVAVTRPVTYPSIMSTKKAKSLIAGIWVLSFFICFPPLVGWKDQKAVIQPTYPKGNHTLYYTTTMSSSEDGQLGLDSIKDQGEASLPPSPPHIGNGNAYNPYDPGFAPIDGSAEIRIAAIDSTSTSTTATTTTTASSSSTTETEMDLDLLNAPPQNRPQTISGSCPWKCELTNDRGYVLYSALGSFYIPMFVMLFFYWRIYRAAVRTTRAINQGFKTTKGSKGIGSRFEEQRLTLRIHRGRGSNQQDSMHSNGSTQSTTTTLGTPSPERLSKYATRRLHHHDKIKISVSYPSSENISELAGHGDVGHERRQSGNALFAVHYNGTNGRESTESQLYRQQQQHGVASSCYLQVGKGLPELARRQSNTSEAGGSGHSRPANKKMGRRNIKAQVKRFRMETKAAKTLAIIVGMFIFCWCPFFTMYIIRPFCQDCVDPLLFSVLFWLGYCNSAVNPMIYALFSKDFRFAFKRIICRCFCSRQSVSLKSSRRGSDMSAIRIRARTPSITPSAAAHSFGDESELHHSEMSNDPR
Method: as §1, §2

EC50 (DmOctβ1 receptor; flpTM-DmOctβ1-GCaMP3.0 cells, 100 µM IBMX, given as logEC50 (negative), read-out: logEC50 ± SD (converted)): 0.437 nM
pEC50 (DmOctβ1 receptor; flpTM-DmOctβ1-GCaMP3.0 cells, 100 µM IBMX): 9.40
pEC50 (DmOctβ1 receptor; flpTM-DmOctβ1 cells loaded with Fluo-4, 100 µM IBMX): ~8.92 and 8.92
pEC50 (DmOctα1B receptor; DmOctα1B cells loaded with Fluo-4): ~7.92 and 7.92
pEC50 (DmOctα1B receptor; DmOctα1B-GCaMP3.0 cells): 7.85
EC50 (DmOctα1B receptor; DmOctα1B-GCaMP3.0 cells, 96 MWP, given as logEC50 (negative), read-out: logEC50 ± SD (converted)): 15.8 nM
SMILES: NCC(O)c1ccc(O)cc1 (stereo not drawn) [octopamine]
